Three molecules from article PMC12951562, “SH2scan: Mapping SH2 Domain-Ligand Binding Selectivity for Inhibitors and Degraders” (Journal of Medicinal Chemistry, 2026) can be followed below.

Read-outs that look alike come from different tables or passages of the source. Non-standard residues stand in square brackets, D forms with d. Residues, ends and D or L forms follow the SMILES beside them. *: point of attachment. pY = N[C@@H](Cc1ccc(OP(=O)(O)O)cc1)C(=O)O; Caffeoyl = O=C(/C=C/c1ccc(O)c(O)c1)*

Holding throughout (experiment): biochemical
Common to all, as to assay type: binding

In assay [1] the target is T1, MIST (Homo sapiens, UniProt Q7Z7G1).
T1 construct: the DNA-tagged SH2 domain concentrations used in this study were <0.1 nM; made in house; host or cells: HEK293 (transient transfection, unpurified extract)
T1 sequence (Q7Z7G1 309-419 limits assumed): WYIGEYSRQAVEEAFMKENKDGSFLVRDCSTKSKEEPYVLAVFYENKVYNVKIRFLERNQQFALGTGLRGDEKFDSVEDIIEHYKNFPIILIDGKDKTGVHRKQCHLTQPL
To be noted: read-out: percent of DMSO vehicle control; for remaining activity at 10 µM: primary screen.

Assay [2] addresses T2, SH2D6 (Homo sapiens, UniProt Q7Z4S9).
T2 construct: made in house; host or cells: HEK293 (transient transfection), unpurified extract
The following applies: for remaining activity at 10 µM: read-out: percent of DMSO vehicle control.

The target in assay [3] is T3, PIK3R2(SH2dom.N-term.) (Homo sapiens, UniProt O00459).
T3 construct: SH2dom.N-term. denotes SH2 domain closest to N-terminus of protein; made in house; host or cells: HEK293 (transient transfection, unpurified extract)
To be noted: for remaining activity at 10 µM: read-out: percent of DMSO vehicle control.

Assay [4] addresses T4, PIK3R1(SH2dom.N-term.) (Homo sapiens, UniProt P27986).
T4 construct: SH2dom.N-term. denotes SH2 domain closest to N-terminus of protein; made in house; host or cells: HEK293 (transient transfection, unpurified extract)
To be noted: for remaining activity at 10 µM: read-out: percent of DMSO vehicle control.

The target of assay [5] is T5, LNK (SH2B3) (Homo sapiens, UniProt Q9UQQ2).
T5 construct: the DNA-tagged SH2 domain concentrations used in this study were <0.1 nM; made in house; host or cells: HEK293 (transient transfection, unpurified extract)
The following applies: for remaining activity at 10 µM: read-out: percent of DMSO vehicle control.

Assay [6] addresses T6, TXK (Homo sapiens, UniProt P42681).
T6 construct: made in house; host or cells: HEK293 (transient transfection), unpurified extract
T6 sequence (P42681 1-527): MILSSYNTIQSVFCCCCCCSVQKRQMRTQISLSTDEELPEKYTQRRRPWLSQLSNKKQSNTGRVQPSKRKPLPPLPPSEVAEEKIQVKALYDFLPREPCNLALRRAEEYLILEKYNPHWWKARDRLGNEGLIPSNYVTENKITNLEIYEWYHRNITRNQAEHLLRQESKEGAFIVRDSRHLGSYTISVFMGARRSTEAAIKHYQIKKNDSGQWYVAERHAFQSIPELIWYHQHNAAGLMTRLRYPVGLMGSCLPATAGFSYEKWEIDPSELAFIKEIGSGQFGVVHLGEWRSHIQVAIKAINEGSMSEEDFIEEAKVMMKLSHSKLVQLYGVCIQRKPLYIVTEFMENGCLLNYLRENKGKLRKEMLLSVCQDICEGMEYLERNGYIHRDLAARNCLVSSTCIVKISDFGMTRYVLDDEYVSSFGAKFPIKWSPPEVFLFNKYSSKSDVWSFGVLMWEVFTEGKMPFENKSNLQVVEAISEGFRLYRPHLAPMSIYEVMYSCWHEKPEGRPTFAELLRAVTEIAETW
To be noted: for remaining activity at 10 µM: read-out: percent of DMSO vehicle control.

Assay [7] concerns the target T7, RASA1(SH2dom.C-term.) (Homo sapiens, UniProt P20936).
T7 construct: SH2dom.C-term. denotes SH2 domain closest to C-terminus of protein; made in house; host or cells: HEK293 (transient transfection, unpurified extract)
T7 sequence (P20936 351-441 limits assumed): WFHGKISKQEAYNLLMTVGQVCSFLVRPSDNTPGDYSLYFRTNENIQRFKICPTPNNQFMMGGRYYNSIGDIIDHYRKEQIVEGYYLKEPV
To be noted: read-out: percent of DMSO vehicle control.

The target in assay [8] is T8, GRAP (Homo sapiens, UniProt Q13588).
T8 construct: the DNA-tagged SH2 domain concentrations used in this study were <0.1 nM; made in house; host or cells: HEK293 (transient transfection; unpurified extract)
The following applies: read-out: percent of DMSO vehicle control; for remaining activity at 10 µM: primary screen.

Assay [9] deals with T9, STAT1 (Homo sapiens, UniProt P42224).
T9 construct: made in house; host or cells: HEK293 (transient transfection), unpurified extract
T9 sequence (P42224 1-750): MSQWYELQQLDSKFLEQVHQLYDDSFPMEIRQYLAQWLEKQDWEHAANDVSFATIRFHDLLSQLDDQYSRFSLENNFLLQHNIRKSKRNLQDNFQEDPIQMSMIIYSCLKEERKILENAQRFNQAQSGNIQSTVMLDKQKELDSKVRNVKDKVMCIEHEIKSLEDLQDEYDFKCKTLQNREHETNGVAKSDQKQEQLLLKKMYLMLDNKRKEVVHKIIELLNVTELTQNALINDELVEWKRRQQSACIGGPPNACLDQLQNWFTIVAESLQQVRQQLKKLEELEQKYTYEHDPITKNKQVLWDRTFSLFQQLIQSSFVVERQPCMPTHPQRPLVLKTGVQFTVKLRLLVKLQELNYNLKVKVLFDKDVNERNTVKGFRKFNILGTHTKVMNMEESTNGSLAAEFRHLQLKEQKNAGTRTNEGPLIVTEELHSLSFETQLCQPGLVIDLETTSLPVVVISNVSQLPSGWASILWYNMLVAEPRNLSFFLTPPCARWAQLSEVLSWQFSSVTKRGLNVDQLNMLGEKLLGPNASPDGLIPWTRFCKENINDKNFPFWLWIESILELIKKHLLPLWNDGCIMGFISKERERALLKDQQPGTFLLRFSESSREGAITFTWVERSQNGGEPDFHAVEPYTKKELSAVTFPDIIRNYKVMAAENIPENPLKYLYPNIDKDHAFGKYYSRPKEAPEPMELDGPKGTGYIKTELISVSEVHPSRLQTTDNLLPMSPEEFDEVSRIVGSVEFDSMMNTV
The following applies: for remaining activity at 10 µM: read-out: percent of DMSO vehicle control; for Kd: read-out: KD.

Assay [10] deals with T10, SHC3 (Homo sapiens, UniProt Q92529).
T10 construct: made in house; host or cells: HEK293 (transient transfection), unpurified extract
T10 sequence (Q92529 1-594): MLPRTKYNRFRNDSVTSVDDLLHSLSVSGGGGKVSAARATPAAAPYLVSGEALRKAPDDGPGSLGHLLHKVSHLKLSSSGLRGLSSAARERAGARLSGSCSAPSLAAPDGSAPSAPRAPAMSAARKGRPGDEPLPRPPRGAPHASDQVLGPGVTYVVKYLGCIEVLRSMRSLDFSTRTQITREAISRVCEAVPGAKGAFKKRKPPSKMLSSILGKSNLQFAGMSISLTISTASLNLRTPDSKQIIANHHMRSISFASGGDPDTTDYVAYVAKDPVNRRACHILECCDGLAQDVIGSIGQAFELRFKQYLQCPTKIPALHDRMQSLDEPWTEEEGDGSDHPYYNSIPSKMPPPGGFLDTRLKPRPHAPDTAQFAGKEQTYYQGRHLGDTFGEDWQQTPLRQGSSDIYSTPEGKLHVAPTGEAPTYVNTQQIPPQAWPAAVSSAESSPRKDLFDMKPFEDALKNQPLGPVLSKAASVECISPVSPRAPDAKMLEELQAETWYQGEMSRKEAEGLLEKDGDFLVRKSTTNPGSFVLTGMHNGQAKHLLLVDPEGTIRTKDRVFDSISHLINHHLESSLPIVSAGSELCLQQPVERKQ
The following applies: for remaining activity at 10 µM: read-out: percent of DMSO vehicle control.

The target of assay [11] is T11, BRK (Homo sapiens, UniProt Q13882).
T11 construct: the DNA-tagged SH2 domain concentrations used in this study were <0.1 nM; made in house; host or cells: HEK293 (transient transfection; unpurified extract)
To be noted: for remaining activity at 10 µM: read-out: percent of DMSO vehicle control; for KD: dose-response.

T2 sequence (Q7Z4S9 whole entry): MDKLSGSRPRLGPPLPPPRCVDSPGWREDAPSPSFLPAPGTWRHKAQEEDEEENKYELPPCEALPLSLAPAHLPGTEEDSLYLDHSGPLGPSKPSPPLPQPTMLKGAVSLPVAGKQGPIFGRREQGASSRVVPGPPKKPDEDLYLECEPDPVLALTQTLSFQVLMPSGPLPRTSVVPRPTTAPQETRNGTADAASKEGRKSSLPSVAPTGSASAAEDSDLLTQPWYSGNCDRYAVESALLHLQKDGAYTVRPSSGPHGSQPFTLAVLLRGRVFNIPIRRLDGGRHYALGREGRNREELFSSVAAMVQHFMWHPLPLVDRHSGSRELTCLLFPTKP
T3 sequence (O00459 330-425 limits assumed): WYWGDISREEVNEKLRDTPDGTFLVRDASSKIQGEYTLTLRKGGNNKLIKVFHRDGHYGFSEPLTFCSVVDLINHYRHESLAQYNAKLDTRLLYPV
T11 sequence (Q13882 78-170 limits assumed): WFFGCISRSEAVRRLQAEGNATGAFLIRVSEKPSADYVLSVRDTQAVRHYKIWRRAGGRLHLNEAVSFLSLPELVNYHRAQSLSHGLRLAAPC
T4 sequence (P27986 333-428 limits assumed): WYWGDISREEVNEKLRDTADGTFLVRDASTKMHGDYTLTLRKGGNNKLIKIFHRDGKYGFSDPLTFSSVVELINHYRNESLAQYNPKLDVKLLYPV
T5 sequence (Q9UQQ2 364-462 limits assumed): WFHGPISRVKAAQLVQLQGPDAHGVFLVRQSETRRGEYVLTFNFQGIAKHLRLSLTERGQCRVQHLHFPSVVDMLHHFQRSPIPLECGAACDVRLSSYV
T8 sequence (Q13588 60-154 limits assumed): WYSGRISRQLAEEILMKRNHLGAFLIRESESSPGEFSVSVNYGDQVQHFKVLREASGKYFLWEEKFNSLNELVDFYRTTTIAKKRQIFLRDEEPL

Consider `CC[C@H](C)[C@H](NC(=O)[C@H](CCC(=O)O)NC(=O)[C@H](CCC(=O)O)NC(=O)[C@H](Cc1ccc(OP(=O)(O)O)cc1)NC(=O)/C=C/c1ccc(O)c(O)c1)C(=O)N[C@@H](CCC(=O)O)C(=O)O` [Caffeic acid-pYEEIE] (Caffeoyl-[pY]EEIE-OH), for which the figures for the percent of DMSO vehicle control at 10 µM in assay [1] and in assay [8] were 72.9 ± 1.4% and 109.9 ± 0.3%, respectively. Besides, the Kd was found to be 14500 ± 2890 nM in assay [2]; 180 ± 52 nM in [3]; 140 ± 17 nM in [4]; 500 ± 410 nM in assay [5]; 950 ± 250 nM in [6]; 130 ± 120 nM in assay [10]. The molecule further had a dissociation constant Kd in assay [11] of 24 ± 3.9 nM. Further, the remaining activity at 10 µM is 36.4 ± 4.5% in assay [2]; 0% in assay [3]; 0.7 ± 0.1% in assay [4]; 0.4 ± 0.1% in [5]; 2.7 ± 0.3% in [6]; 78 ± 6.4% in [7]. Further, the remaining activity at 10 µM was 27.1 ± 21.3% in assay [9], 0% in assay [10] and 0% in assay [11]. Also, the KD entry in assay [9] (dose-response) is reported as “No Hit”.
For `O=C(COc1ccc2cc(C(=O)Nc3ccccc3)ccc2c1)NCc1ccc(OP(=O)(O)O)c(OP(=O)(O)O)c1` [Stafib-1], the remaining activity at 10 µM in assay [1] came to 96.8 ± 9.3%; in assay [2] (primary screen, 10 μM) it was 88.5 ± 5.5%; in assay [3] (primary screen, 10 μM), 97.2 ± 21.5%; in assay [4] (primary screen, 10 μM), 88.8 ± 24.3%; in [5] (primary screen, 10 μM), 94.8 ± 14.4%; in [6] (primary screen, 10 μM) it was 144%. Further, the remaining activity at 10 µM came to 97 ± 11.7% in [7] (primary screen, 10 μM); 76.2 ± 27% in [8]; 48.2 ± 5.4% in assay [9] (primary screen, 10 μM); 87 ± 14.4% in assay [10] (primary screen, 10 μM); 5.4 ± 60.2% in assay [11] (primary screen, 10 μM). Further, the Kd in assay [9] (dose-response) was determined as 37000 nM. In addition, the KD entry in assay [11] was “No Hit”.
With `C/C(=C\C(=O)N[C@H](C(=O)N1CCC[C@H]1C(=O)N(c1ccccc1)c1ccc(I)cc1)C(C)(C)C)c1ccc(OP(=O)(O)O)cc1` [STAT6-IN-1], the remaining activity at 10 µM came to 88.7 ± 5.9% in assay [1]; 67.5 ± 5.3% in assay [2] (primary screen, 10 μM); 48.2 ± 5.7% in [3] (primary screen, 10 μM); 44.8 ± 5% in assay [4] (primary screen, 10 μM); 6.9 ± 3.8% in assay [5] (primary screen, 10 μM); 87.1 ± 5.9% in [6] (primary screen, 10 μM). The remaining activity at 10 µM in assay [7] (primary screen, 10 μM) stood at 76.6 ± 7.8%; in assay [8] it was 52 ± 15.9%; in [9] (primary screen, 10 μM), 0%; in assay [10] (primary screen, 10 μM), 35.3 ± 4.8%; in [11] (primary screen, 10 μM) it was 3 ± 0.4%. Moreover, the dissociation constant Kd was 2300 ± 140 nM in [5] (dose-response, read-out: KD); 330 ± 73 nM in [9] (dose-response); 3600 ± 570 nM in assay [10] (dose-response, read-out: KD). Also, the KD result in assay [11] was “No Hit”.

The term Kd denotes the equilibrium constant for the complex coming apart.
